# Results from EP0504938A2, “Prophylactic and therapeutic agent for bone diseases comprising di- or tripeptide derivative as active ingredient” (SUNTORY LIMITED, priority 1991, dated 1992).
# Non-standard residues stand in square brackets, D forms with d. Residues, ends and D or L forms follow the SMILES beside them. *: point of attachment. Nle = CCCC[C@H](N)C(=O)O; Cbz = O=C(OCc1ccccc1)*
# Tests used:
# [1] = test system: rat hypercalcemia induced by PTHrp(1-34); experiment: Rat hypercalcemia induced by PTHrp(1-34), intraperitoneal administration; format: in vivo, male Wistar rats; details: 10 mg/kg intraperitoneal; for Ca conc. ± standard error: blood 1 hour after PTHrp, n = 5
# Protocol: To male Wistar rats aged 5 weeks (70 - 90 g, 5 animals in each group), 10 mg/kg body weight of Compound 1 was intraperitoneally administered 0.5, 1, 2 and 4 hours before the administration of PTHrp(1-34). PTHrp(1-34) was intravenously injected into the animals at the level of 5 nmole/kg. One hour after the administration of PTHrp(1-34), a blood sample was collected from each animal and the blood calcium concentration was determined by the same method as the one employed in Example 1.
# [2] = Acute toxicity, intraperitoneal; format: in vivo; details: 2 g/kg intraperitoneally, rats
# [3] = test system: secondary hyperparathyroidism; experiment: Secondary hyperparathyroidism, calcium-deficient diet model; format: in vivo, male Wistar rats; details: 40 mg/kg oral after 5 days calcium-deficient diet; blood 5 hours after administration
# Protocol: In a calcium-deficient diet model system of rats, parathyroid hormone is released in order to maintain the blood calcium concentration within a normal range. In other words, the parathyroid hormone induces bone resorption so that the blood calcium concentration is maintained within a normal range.
# Taking advantage of the above-mentioned model system, male Wistar rats aged 5 weeks (70 - 90 g, 5 animals in each group) were fed on calcium-deficient diet for 5 days. After fasting overnight, 40 mg/kg body weight of the compounds listed in Table 1 were orally administered to the rats. 5 hours after the administration of the drugs, the blood calcium concentration of each animal was determined by the same method as the one employed in Example 1.
# [4] = test system: rat hypercalcemia induced by PTHrp(1-34); experiment: Rat hypercalcemia induced by PTHrp(1-34), oral administration; format: in vivo, male Wistar rats; details: 4 hours before PTHrp(1-34) 5 nmole/kg i.v., blood 1 hour after PTHrp, n = 5
# Protocol: To male Wistar rats aged 5 weeks (70 - 90 g, 5 animals in each group), 40 mg/kg body weight of the compounds listed in Table 2 and 40 and 80 mg/kg body weight of the compounds listed in Table 3 were orally administered. After 4 hours, 5 nmole/kg of PTHrp(1-34) was intravenously injected into the animals.
# One hour after the administration of PTHrp(1-34), a blood sample was collected from each rat and the blood calcium concentration was determined by the octocresolphthalein complexone method.
structure (smiles),measurement,setting,value
"CCCC[C@@H](C=O)NC(=O)[C@H](CC(C)C)NC(=O)OCc1ccccc1 [Compound 1, N-benzyloxycarbonyl-leucyl-norleucinal]",suppression of the increase in the blood calcium concentration (result in words),[1]; 0.5 to 4 hours before PTHrp(1-34),continuously effected significant suppression
same,Ca conc. ± standard error,[1]; 0.5 hr before PTHrp(1-34),11.74 ± 0.07 mg/dL
same,Ca conc. ± standard error,[1]; 1 hr before PTHrp(1-34),11.28 ± 0.07 mg/dL
same,Ca conc. ± standard error,[1]; 2 hr before PTHrp(1-34),11.56 ± 0.09 mg/dL
same,Ca conc. ± standard error,[1]; 4 hr before PTHrp(1-34),11.91 ± 0.09 mg/dL
same,"acute toxicity (general conditions, mortality)",[2],neither any change in the general conditions of the animals nor any mortal case was observed
CCCCC(C=O)NC(=O)C(CC(C)C)NC(=O)CCCc1ccccc1 (centres unmarked) [Compound 2],blood calcium concentration (result in words),[3],significantly reduced
CCCCC(C=O)NC(=O)C(CC(C)C)NC(=O)OC(C)(C)C (centres unmarked) [Compound 6],blood calcium concentration (result in words),[3],significantly reduced
CCCCC(C=O)NC(=O)C(CC(C)C)NC(=O)OCc1ccc(Cl)cc1 (centres unmarked) [Compound 8],blood calcium concentration (result in words),[3],significantly reduced
CCCCC(C=O)NC(=O)C(CC(C)C)NC(=O)OCc1ccc(OC)cc1 (centres unmarked) [Compound 9],blood calcium concentration (result in words),[3],significantly reduced
CCCCC(C=O)NC(=O)C(CC(C)C)NC(=O)OCC(Cl)(Cl)Cl (centres unmarked) [Compound 11],blood calcium concentration (result in words),[3],significantly reduced
CCCCC(C=O)NC(=O)C(CC(C)C)NP(=S)(c1ccccc1)c1ccccc1 (centres unmarked) [Compound 15],blood calcium concentration (result in words),[3],significantly reduced
"CSCC[C@@H](C=O)NC(=O)[C@H](CC(C)C)NC(=O)[C@H](CC(C)C)NC(C)=O [Compound 21, N-Acetyl-leucyl-leucyl-methioninal] (Ac-Leu-Leu-Met-aldehyde)",Ca conc. ± standard error,[4]; 40 mg/kg oral,9.78 ± 0.08 mg/dL
same,Ca conc. ± standard error,[4]; 80 mg/kg oral,9.61 ± 0.13 mg/dL
"CCCC[C@@H](C=O)NC(=O)[C@H](CC(C)C)NC(=O)[C@H](CC(C)C)NC(C)=O [Compound 22, N-Acetyl-leucyl-leucyl-norleucinal] (Ac-Leu-Leu-[Nle]-aldehyde)",Ca conc. ± standard error,[4]; 40 mg/kg oral,9.49 ± 0.20 mg/dL
same,Ca conc. ± standard error,[4]; 80 mg/kg oral,9.52 ± 0.11 mg/dL
"CCCC[C@@H](C=O)NC(=O)[C@H](CC(C)C)NC(=O)[C@H](CC(C)C)NC(=O)OCc1ccccc1 [Compound 23, N-Benzyloxycarbonyl-leucyl-leucyl-norleucinal] (Cbz-Leu-Leu-[Nle]-aldehyde)",Ca conc. ± standard error,[4]; 40 mg/kg oral,9.53 ± 0.08 mg/dL
same,Ca conc. ± standard error,[4]; 80 mg/kg oral,9.28 ± 0.66 mg/dL
"CC(C)CC(NC(=O)C1OC1C(=O)O)C(=O)NCCCCNC(=N)N [Compound E-64, L-trans-epoxysuccinyl-L-leucineamide-(e-guanide)-butane, reference compound]",Ca conc. ± standard error,[4]; 40 mg/kg oral,9.69 ± 0.21 mg/dL
same,Ca conc. ± standard error,[4]; 80 mg/kg oral,9.61 ± 0.12 mg/dL
